Assay results as given in patent US6559101B2, “N- (5, 7-dimethoxy [1, 2, 4] triazolo [1, 5-a] pyrimidin-2-yl) arylsulfonamide compounds and their use as herbicides” (Dow AgroSciences LLC, priority 2000, dated 2003).

Legend:
Type in all cases: in vivo
[1] = tested on: morningglory (Ipomoea hederacea); test: Preemergence herbicidal activity; details: scored after 3 weeks, 0 no injury, 100 complete kill or no germination
Experimental: (§1) The soil matrix was contained in plastic pots with a surface area of 161 square centimeters. When required to ensure good germination and healthy plants, a fungicide treatment and/or other chemical or physical treatment was applied. A weighed amount, determined by the highest rate to be tested, of each test compound was placed in a 20 mL glass vial and was dissolved in 8 mL of a 97:3 v/v (volume/volume) mixture of acetone and dimethyl sulfoxide to obtain concentrated stock solutions. […] The stock solutions obtained were diluted with a 99.9:0.1 mixture of water and Tween® 155 surfactant (ethoxylated sorbitan fatty acid ester) to obtain application solutions of known concentration. The solutions containing the highest concentration to be tested were prepared by diluting 4 mL aliquots of the stock solution with 8.5 mL of the mixture and lower concentrations were prepared by dilution of appropriate smaller portions of the stock solution. A 2.5 mL aliquot of each solution of known concentration was sprayed evenly onto the soil of each seeded pot using a Cornwall 5.0 mL glass syringe fitted with a TeeJet TN-3 hollow cone nozzle to obtain thorough coverage of the soil in each pot. Control pots were sprayed in the same manner with the aqueous mixture. A highest application rate of 4.48 kg/ha is achieved when 50 mg of test compound is employed. The treated pots and control pots were placed in a greenhouse with an approximately 15 hr photoperiod which was maintained at about 23-29° C. during the day and 22-28° C. during the night. Nutrients and water were added on a regular basis and supplemental lighting was provided with overhead metal halide 1000 Watt lamps as necessary. The water was added by top-irrigation. After 3 weeks the condition of the test plants that germinated and grew as compared with that of the untreated plants that germinated and grew was determined visually and scored on a scale of 0 to 100 percent where 0 corresponds to no injury and 100 corresponds to complete kill or no germination.

[2] = tested on: cocklebur (Xanthium strumarium); test: Preemergence herbicidal activity; details: scored after 3 weeks, 0 no injury, 100 complete kill or no germination
Experimental: as §1

[3] = tested on: wild poinsettia (Euphorbia heterophylla); test: Preemergence herbicidal activity; details: scored after 3 weeks, 0 no injury, 100 complete kill or no germination
Experimental: as §1

[4] = tested on: velvetleaf (Abutilion theophrasti); test: Preemergence herbicidal activity; details: scored after 3 weeks, 0 no injury, 100 complete kill or no germination
Experimental: as §1

[5] = tested on: crabgrass (Digitaria sanguinalis); test: Preemergence herbicidal activity; details: scored after 3 weeks, 0 no injury, 100 complete kill or no germination
Experimental: as §1

[6] = tested on: lambsquarters (Chenopodium album); test: Preemergence herbicidal activity; details: scored after 3 weeks, 0 no injury, 100 complete kill or no germination
Experimental: as §1

wild oats (Avena fatua) [7] = test: Preemergence herbicidal activity; details: scored after 3 weeks, 0 no injury, 100 complete kill or no germination
Experimental: as §1

[8] = tested on: pigweed (Amaranthus retroflexus); test: Preemergence herbicidal activity; details: scored after 3 weeks, 0 no injury, 100 complete kill or no germination
Experimental: as §1

[9] = tested on: blackgrass (Alopecurus myosuroides); test: Preemergence herbicidal activity; details: scored after 3 weeks, 0 no injury, 100 complete kill or no germination
Experimental: as §1

[10] = tested on: barnyardgrass (Echinochloa crus-galli); test: Preemergence herbicidal activity; details: scored after 3 weeks, 0 no injury, 100 complete kill or no germination
Experimental: as §1

[11] = tested on: giant foxtail (Setaria faberi); test: Preemergence herbicidal activity; details: scored after 3 weeks, 0 no injury, 100 complete kill or no germination
Experimental: as §1

[12] = tested on: Rox orange sorghum (Sorghum bicolor); test: Preemergence herbicidal activity; details: scored after 3 weeks, 0 no injury, 100 complete kill or no germination
Experimental: as §1

[13] = tested on: wild buckwheat (Polygonum convolvulus); test: Postemergence herbicidal activity; details: scored after 2 weeks, 0 no injury, 100 complete kill
Experimental: (§2) Seeds of the desired test plant species were planted in Grace-Sierra MetroMix® 306 planting mixture, which typically has a pH of 6.0 to 6.8 and an organic matter content of about 30 percent, in plastic pots with a surface area of 64 square centimeters. When required to ensure good germination and healthy plants, a fungicide treatment and/or other chemical or physical treatment was applied. The plants were grown for 7-21 days in a greenhouse with an approximately 15 hr photoperiod which was maintained at about 23-29° C. during the day and 22-28° C. during the night. Nutrients and water were added on a regular basis and supplemental lighting was provided with overhead metal halide 1000 Watt lamps as necessary. The plants were employed for testing when they reached the first or second true leaf stage. A weighed amount of each test compound, determined by the highest rate to be tested, was placed in a 20 mL glass vial and was dissolved in 4 mL of a 97:3 v/v (volume/volume) mixture of acetone and dimethyl sulfoxide to obtain concentrated stock solutions. […] The concentrated stock solutions obtained were diluted with an aqueous mixture containing acetone, water, iso-propyl alcohol, dimethyl sulfoxide, Atplus 411F crop oil concentrate, and Triton X-155 surfactant (methylenebisdiamyl phenoxy polyethoxy ethanol) in a 48.5:39:10:1.5:1.0:0.02 v/v ratio to obtain spray solutions of known concentration. The solutions containing the highest concentration to be tested were prepared by diluting 2 mL aliquots of the stock solution with 13 mL of the mixture and lower concentrations were prepared by dilution of appropriate smaller portions of the stock solution. Approximately 1.5 mL aliquots of each solution of known concentration were sprayed evenly onto each of the test plant pots using a Devilbiss atomizer driven by compressed air pressure of 2 to 4 psi (140 to 280 kiloPascals) to obtain thorough coverage of each plant. Control plants were sprayed in the same manner with the aqueous mixture. In this test an application rate of 1 ppm results in the application of approximately 1 g/ha. The treated plants and control plants were placed in a greenhouse as described above and watered by sub-irrigation to prevent wash-off of the test compounds. After 2 weeks the condition of the test plants as compared with that of the untreated plants was determined visually and scored on a scale of 0 to 100 percent where 0 corresponds to no injury and 100 corresponds to complete kill.

[14] = tested on: morningglory (Ipomoea hederacea); test: Postemergence herbicidal activity; details: scored after 2 weeks, 0 no injury, 100 complete kill
Experimental: as §2

[15] = tested on: cocklebur (Xanthium strumarium); test: Postemergence herbicidal activity; details: scored after 2 weeks, 0 no injury, 100 complete kill
Experimental: as §2

[16] = tested on: velvetleaf (Abutilion theophrasti); test: Postemergence herbicidal activity; details: scored after 2 weeks, 0 no injury, 100 complete kill
Experimental: as §2

[17] = tested on: lambsquarters (Chenopodium album); test: Postemergence herbicidal activity; details: scored after 2 weeks, 0 no injury, 100 complete kill
Experimental: as §2

wild oats (Avena fatua) [18] = test: Postemergence herbicidal activity; details: scored after 2 weeks, 0 no injury, 100 complete kill
Experimental: as §2

viola (Viola tricolor) = test: Postemergence herbicidal activity; details: scored after 2 weeks, 0 no injury, 100 complete kill
Experimental: as §2

[19] = tested on: pigweed (Amaranthus retroflexus); test: Postemergence herbicidal activity; details: scored after 2 weeks, 0 no injury, 100 complete kill
Experimental: as §2

[20] = tested on: blackgrass (Alopecurus myosuroides); test: Postemergence herbicidal activity; details: scored after 2 weeks, 0 no injury, 100 complete kill
Experimental: as §2

[21] = tested on: chickweed (Stellaria media); test: Postemergence herbicidal activity; details: scored after 2 weeks, 0 no injury, 100 complete kill
Experimental: as §2

[22] = tested on: giant foxtail (Setaria faberi); test: Postemergence herbicidal activity; details: scored after 2 weeks, 0 no injury, 100 complete kill
Experimental: as §2

[23] = tested on: Rox orange sorghum (Sorghum bicolor); test: Postemergence herbicidal activity; details: scored after 2 weeks, 0 no injury, 100 complete kill
Experimental: as §2

COc1cc(OC)n2nc(NS(=O)(=O)c3c(OCC(F)(F)F)cccc3C(F)(F)F)nc2n1 [Compound 12]
Preemergence herbicidal activity IPOHE ([1]; 17.5 g/Ha): 90%
Preemergence herbicidal activity XANST ([2]; 17.5 g/Ha): 80%
Preemergence herbicidal activity EPHHL ([3]; 17.5 g/Ha): 90%
Preemergence herbicidal activity ABUTH ([4]; 17.5 g/Ha): 70%
Preemergence herbicidal activity DIGSA ([5]; 17.5 g/Ha): 80%
Preemergence herbicidal activity CHEAL ([6]; 17.5 g/Ha): 100%
Preemergence herbicidal activity AVEFA (wild oats (Avena fatua) [7]; 17.5 g/Ha): 30%
Preemergence herbicidal activity AMARE ([8]; 17.5 g/Ha): 98%
Preemergence herbicidal activity ALOMY ([9]; 17.5 g/Ha): 70%
Preemergence herbicidal activity ECHCG ([10]; 17.5 g/Ha): 100%
Preemergence herbicidal activity SETFA ([11]; 17.5 g/Ha): 90%
Preemergence herbicidal activity SORBI ([12]; 17.5 g/Ha): 98%
Postemergence herbicidal activity POLCO ([13]; 62.5 ppm): 98%
Postemergence herbicidal activity IPOHE ([14]; 62.5 ppm): 98%
Postemergence herbicidal activity XANST ([15]; 62.5 ppm): 100%
Postemergence herbicidal activity ABUTH ([16]; 62.5 ppm): 98%
Postemergence herbicidal activity CHEAL ([17]; 62.5 ppm): 100%
Postemergence herbicidal activity AVEFA (wild oats (Avena fatua) [18]; 62.5 ppm): 70%
Postemergence herbicidal activity VIOTR (viola (Viola tricolor); 62.5 ppm): 100%
Postemergence herbicidal activity AMARE ([19]; 62.5 ppm): 100%
Postemergence herbicidal activity ALOMY ([20]; 62.5 ppm): 60%
Postemergence herbicidal activity STEME ([21]; 62.5 ppm): 90%
Postemergence herbicidal activity SETFA ([22]; 62.5 ppm): 98%
Postemergence herbicidal activity SORBI ([23]; 62.5 ppm): 90%

COc1cc(OC)n2nc(NS(=O)(=O)c3c(OC(C)C)cccc3C(F)(F)F)nc2n1 [Compound 11]
Preemergence herbicidal activity IPOHE ([1]; 17.5 g/Ha): 98%
Preemergence herbicidal activity XANST ([2]; 17.5 g/Ha): 90%
Preemergence herbicidal activity EPHHL ([3]; 17.5 g/Ha): 90%
Preemergence herbicidal activity ABUTH ([4]; 17.5 g/Ha): 100%
Preemergence herbicidal activity DIGSA ([5]; 17.5 g/Ha): 80%
Preemergence herbicidal activity CHEAL ([6]; 17.5 g/Ha): 100%
Preemergence herbicidal activity AVEFA (wild oats (Avena fatua) [7]; 17.5 g/Ha): 60%
Preemergence herbicidal activity AMARE ([8]; 17.5 g/Ha): 100%
Preemergence herbicidal activity ALOMY ([9]; 17.5 g/Ha): 100%
Preemergence herbicidal activity ECHCG ([10]; 17.5 g/Ha): 100%
Preemergence herbicidal activity SETFA ([11]; 17.5 g/Ha): 100%
Preemergence herbicidal activity SORBI ([12]; 17.5 g/Ha): 90%
Postemergence herbicidal activity POLCO ([13]; 62.5 ppm): 100%
Postemergence herbicidal activity IPOHE ([14]; 62.5 ppm): 80%
Postemergence herbicidal activity XANST ([15]; 62.5 ppm): 100%
Postemergence herbicidal activity ABUTH ([16]; 62.5 ppm): 100%
Postemergence herbicidal activity CHEAL ([17]; 62.5 ppm): 100%
Postemergence herbicidal activity AVEFA (wild oats (Avena fatua) [18]; 62.5 ppm): 30%
Postemergence herbicidal activity VIOTR (viola (Viola tricolor); 62.5 ppm): 90%
Postemergence herbicidal activity AMARE ([19]; 62.5 ppm): 100%
Postemergence herbicidal activity ALOMY ([20]; 62.5 ppm): 60%
Postemergence herbicidal activity STEME ([21]; 62.5 ppm): 95%
Postemergence herbicidal activity SETFA ([22]; 62.5 ppm): 100%
Postemergence herbicidal activity SORBI ([23]; 62.5 ppm): 50%

COc1cc(OC)n2nc(NS(=O)(=O)c3c(C(F)(F)C(F)(F)F)ccnc3OC)nc2n1 [Compound 18]
Preemergence herbicidal activity IPOHE ([1]; 35 g/Ha): 90%
Preemergence herbicidal activity XANST ([2]; 35 g/Ha): 70%
Preemergence herbicidal activity EPHHL ([3]; 35 g/Ha): 70%
Preemergence herbicidal activity ABUTH ([4]; 35 g/Ha): 95%
Preemergence herbicidal activity DIGSA ([5]; 35 g/Ha): 100%
Preemergence herbicidal activity CHEAL ([6]; 35 g/Ha): 100%
Preemergence herbicidal activity AVEFA (wild oats (Avena fatua) [7]; 35 g/Ha): 70%
Preemergence herbicidal activity AMARE ([8]; 35 g/Ha): 100%
Preemergence herbicidal activity ALOMY ([9]; 35 g/Ha): 100%
Preemergence herbicidal activity ECHCG ([10]; 35 g/Ha): 90%
Preemergence herbicidal activity SETFA ([11]; 35 g/Ha): 100%
Preemergence herbicidal activity SORBI ([12]; 35 g/Ha): 100%
Postemergence herbicidal activity POLCO ([13]; 31.3 ppm): 60%
Postemergence herbicidal activity IPOHE ([14]; 31.3 ppm): 70%
Postemergence herbicidal activity XANST ([15]; 31.3 ppm): 85%
Postemergence herbicidal activity ABUTH ([16]; 31.3 ppm): 90%
Postemergence herbicidal activity CHEAL ([17]; 31.3 ppm): 95%
Postemergence herbicidal activity AVEFA (wild oats (Avena fatua) [18]; 31.3 ppm): 50%
Postemergence herbicidal activity VIOTR (viola (Viola tricolor); 31.3 ppm): 80%
Postemergence herbicidal activity AMARE ([19]; 31.3 ppm): 100%
Postemergence herbicidal activity ALOMY ([20]; 31.3 ppm): 65%
Postemergence herbicidal activity STEME ([21]; 31.3 ppm): 100%
Postemergence herbicidal activity SETFA ([22]; 31.3 ppm): 85%
Postemergence herbicidal activity SORBI ([23]; 31.3 ppm): 90%
